Experimental data reported in patent US10611740B2, “Aryl dihydro-2H-benzo[b][1,4]oxazine sulfonamide and related compounds for use as agonists of RORγ and the treatment of disease” (Lycera Corporation, priority 2015, dated 2020).

What was measured:
RORγ-LBD = target: T1, RORγ-LBD (Homo sapiens, UniProt P51449); test: RORγ-Ligand Binding Domain (LBD) TR-FRET Assay; assay type: biochemical;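 on TR-FRET Assay Max Response: 665/615 nm ratio relative to signal without ursolic acid or compound set at 100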
T1 construct: made in house; host or cells: SF9 cells (baculovirus)
T1 sequence (P51449 269-508 limits assumed): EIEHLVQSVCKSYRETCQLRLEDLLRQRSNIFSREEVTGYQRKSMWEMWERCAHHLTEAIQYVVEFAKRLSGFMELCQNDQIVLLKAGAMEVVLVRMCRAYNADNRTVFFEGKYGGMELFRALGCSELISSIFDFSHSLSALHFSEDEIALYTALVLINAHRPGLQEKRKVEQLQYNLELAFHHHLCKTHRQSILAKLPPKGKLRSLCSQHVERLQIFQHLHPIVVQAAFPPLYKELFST
Summary of the method: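 SF9 lysate containing His-RORγ-LBD, ~3 nM final; coactivator peptide biotin-SRC1 LXXLL, 200 nM final; ursolic acid 2 μM final; DMSO 1% final; Tris pH 7.0 buffer with KCl, EDTA, DTT, BSA. TR-FRET format.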

Gal4-RORγ-LBD = target: T2, Gal4-RORγ-LBD (Homo sapiens, UniProt P51449); test: Gal4-RORγ Luciferase Reporter Assay in HEK-293T Cells; assay type: cell-based; settings: HEK-293 cells, luciferase reporter, with 2 μM ursolic acid
T2 construct: expressed in transfected cells; host or cells: HEK-293 cells (pcDNA3.1neo plasmid)
T2 sequence (P51449 269-508 limits assumed): T1 sequence (P51449 269-508 limits assumed)
Summary of the method: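 In transfected HEK-293 cells (Gal4-RORγ-LBD, Gal4-luciferase), test agents with 2 μM ursolic acid were incubated overnight at 37 °C before luminescent detection. Values are relative to the ursolic-acid-free, compound-free signal (100).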

| SMILES | EC50 (RORγ-LBD) [nM] | TR-FRET Assay Max Response (RORγ-LBD) | EC50 (Gal4-RORγ-LBD) [nM] | Gal4-RORγ Assay Max Response (Gal4-RORγ-LBD) |
| --- | --- | --- | --- | --- |
| O=C(O)CC[C@H]1CN(S(=O)(=O)c2cccc(C(F)(F)F)c2)c2cc(-c3cc(C(F)(F)F)ccn3)ccc2O1 [Compound 3, (S)-3-(4-((3-(trifluoromethyl)phenyl)sulfonyl)-6-(4-(trifluoromethyl)pyridin-2-yl)-3,4-dihydro-2H-benzo[b][1,4]oxazin-2-yl)propanoic acid] | < 500 | *** (The symbol “***” indicates a value in the range of greater than 150 to 200) | 500 to 5000 | *** (The symbol “***” indicates a value in the range of greater than 150 to 200) |
| O=C(O)CC[C@H]1CN(S(=O)(=O)c2cccc(C(F)(F)F)c2)c2cc(-c3cccc(C(F)(F)F)n3)ccc2O1 [Compound 4A, (S)-3-(4-((3-(trifluoromethyl)-phenyl)sulfonyl)-6-(6-(trifluoromethyl)pyridin-2-yl)-3,4-dihydro-2H-benzo[b][1,4]oxazin-2-yl)propanoic acid] | < 500 | *** (The symbol “***” indicates a value in the range of greater than 150 to 200) | < 500 | *** (The symbol “***” indicates a value in the range of greater than 150 to 200) |
| CCOc1cccc(-c2ccc3c(c2)N(S(=O)(=O)c2cccc(C(F)(F)F)c2)C[C@H](CCC(=O)O)O3)c1F [Compound 4AA, (S)-3-(6-(3-ethoxy-2-fluorophenyl)-4-((3-(trifluoromethyl)phenyl)sulfonyl)-3,4-dihydro-2H-benzo[b][1,4]oxazin-2-yl)propanoic acid] | < 500 | **** (The symbol “****” indicates a value greater than 200) | < 500 | ** (The symbol “**” indicates a value in the range of greater than 90 to 150) |
| O=C(O)CC[C@H]1CN(S(=O)(=O)c2cccc(C(F)(F)F)c2)c2cc(-c3cccc(OCCO)c3)ccc2O1 [Compound 4AB, (S)-3-(6-(3-(2-hydroxyethoxy)-phenyl)-4-((3-(trifluoromethyl)phenyl)-sulfonyl)-3,4-dihydro-2H-benzo[b][1,4]oxazin-2-yl)propanoic acid] | > 10000 | – | > 10000 | – |
| CC(C)n1cc(-c2ccc3c(c2)N(S(=O)(=O)c2cccc(C(F)(F)F)c2)C[C@H](CCC(=O)O)O3)cn1 [Compound 4AC, (S)-3-(6-(1-isopropyl-1H-pyrazol-4-yl)-4-((3-(trifluoromethyl)phenyl)sulfonyl)-3,4-dihydro-2H-benzo[b][1,4]oxazin-2-yl)propanoic acid] | < 500 | **** (The symbol “****” indicates a value greater than 200) | < 500 | * (The symbol “*” indicates a value in the range of 25 to 90) |
| O=C(O)CC[C@H]1CN(S(=O)(=O)c2cccc(C(F)(F)F)c2)c2cc(-c3cccnc3-c3ccccc3)ccc2O1 [Compound 4AD, (S)-3-(6-(2-phenylpyridin-3-yl)-4-((3-(trifluoromethyl)-phenyl)sulfonyl)-3,4-dihydro-2H-benzo[b][1,4]oxazin-2-yl)propanoic acid] | > 10000 | – | > 10000 | – |
| Cc1ncccc1-c1ccc2c(c1)N(S(=O)(=O)c1cccc(C(F)(F)F)c1)C[C@H](CCC(=O)O)O2 [Compound 4AE, (S)-3-(6-(2-methylpyridin-3-yl)-4-((3-(trifluoromethyl)-phenyl)sulfonyl)-3,4-dihydro-2H-benzo[b][1,4]oxazin-2-yl)propanoic acid] | < 500 | **** (The symbol “****” indicates a value greater than 200) | 500 to 5000 | ** (The symbol “**” indicates a value in the range of greater than 90 to 150) |
| Cc1ncc(F)cc1-c1ccc2c(c1)N(S(=O)(=O)c1cccc(C(F)(F)F)c1)C[C@H](CCC(=O)O)O2 [Compound 4AF, (S)-3-(6-(5-fluoro-2-methylpyridin-3-yl)-4-((3-(trifluoromethyl)phenyl)sulfonyl)-3,4-dihydro-2H-benzo[b][1,4]oxazin-2-yl)propanoic acid] | < 500 | **** (The symbol “****” indicates a value greater than 200) | < 500 | ** (The symbol “**” indicates a value in the range of greater than 90 to 150) |
| Cc1c(F)cccc1-c1ccc2c(c1)N(S(=O)(=O)c1cccc(C(F)(F)F)c1)C[C@H](CCC(=O)O)O2 [Compound 4AG, (S)-3-(6-(3-fluoro-2-methylphenyl)-4-((3-(trifluoromethyl)phenyl)sulfonyl)-3,4-dihydro-2H-benzo[b][1,4]oxazin-2-yl)propanoic acid] | < 500 | **** (The symbol “****” indicates a value greater than 200) | < 500 | ** (The symbol “**” indicates a value in the range of greater than 90 to 150) |
| CCc1cccc(-c2ccc3c(c2)N(S(=O)(=O)c2cccc(C(F)(F)F)c2)C[C@H](CCC(=O)O)O3)c1 [Compound 4AH, (S)-3-(6-(3-ethylphenyl)-4-((3-(trifluoromethyl)phenyl)-sulfonyl)-3,4-dihydro-2H-benzo[b][1,4]oxazin-2-yl)propanoic acid] | < 500 | **** (The symbol “****” indicates a value greater than 200) | < 500 | ** (The symbol “**” indicates a value in the range of greater than 90 to 150) |
| Cc1c(F)cc(F)cc1-c1ccc2c(c1)N(S(=O)(=O)c1cccc(C(F)(F)F)c1)C[C@H](CCC(=O)O)O2 [Compound 4AJ, (S)-3-(6-(3,5-difluoro-2-methylphenyl)-4-((3-(trifluoromethyl)phenyl)-sulfonyl)-3,4-dihydro-2H-benzo[b][1,4]oxazin-2-yl)propanoic acid] | < 500 | **** (The symbol “****” indicates a value greater than 200) | < 500 | ** (The symbol “**” indicates a value in the range of greater than 90 to 150) |
| O=C(O)CC[C@H]1CN(S(=O)(=O)c2cccc(C(F)(F)F)c2)c2cc(-c3cc(F)cc(F)c3F)ccc2O1 [Compound 4AK, (S)-3-(4-((3-(trifluoromethyl)-phenyl)sulfonyl)-6-(2,3,5-trifluorophenyl)-3,4-dihydro-2H-benzo[b][1,4]oxazin-2-yl)propanoic acid] | < 500 | **** (The symbol “****” indicates a value greater than 200) | < 500 | ** (The symbol “**” indicates a value in the range of greater than 90 to 150) |
| CN(C)c1cncc(-c2ccc3c(c2)N(S(=O)(=O)c2cccc(C(F)(F)F)c2)C[C@H](CCC(=O)O)O3)n1 [Compound 4AL, (S)-3-(6-(6-(dimethylamino)-pyrazin-2-yl)-4-((3-(trifluoromethyl)phenyl)-sulfonyl)-3,4-dihydro-2H-benzo[b][1,4]oxazin-2-yl)propanoic acid] | < 500 | **** (The symbol “****” indicates a value greater than 200) | < 500 | ** (The symbol “**” indicates a value in the range of greater than 90 to 150) |
| CNc1cccc(-c2ccc3c(c2)N(S(=O)(=O)c2cccc(C(F)(F)F)c2)C[C@H](CCC(=O)O)O3)n1 [Compound 4AM, (S)-3-(6-(6-(methylamino)-pyridin-2-yl)-4-((3-(trifluoromethyl)phenyl)-sulfonyl)-3,4-dihydro-2H-benzo[b][1,4]oxazin-2-yl)propanoic acid] | < 500 | **** (The symbol “****” indicates a value greater than 200) | 500 to 5000 | ** (The symbol “**” indicates a value in the range of greater than 90 to 150) |
| Cc1cc(-c2ccc3c(c2)N(S(=O)(=O)c2cccc(C(F)(F)F)c2)C[C@H](CCC(=O)O)O3)nc(N(C)C)c1 [Compound 4AN, (S)-3-(6-(6-(dimethylamino)-4-methylpyridin-2-yl)-4-((3-(trifluoromethyl)phenyl)sul-fonyl)-3,4-dihydro-2H-benzo[b][1,4]oxazin-2-yl)propanoic acid] | < 500 | **** (The symbol “****” indicates a value greater than 200) | < 500 | ** (The symbol “**” indicates a value in the range of greater than 90 to 150) |
| Cc1ccc(N(C)C)nc1-c1ccc2c(c1)N(S(=O)(=O)c1cccc(C(F)(F)F)c1)C[C@H](CCC(=O)O)O2 [Compound 4AO, (S)-3-(6-(6-(dimethylamino)-3-methylpyridin-2-yl)-4-((3-(trifluoromethyl)phenyl)sul-fonyl)-3,4-dihydro-2H-benzo[b][1,4]oxazin-2-yl)propanoic acid] | 500 to 5000 | * (The symbol “*” indicates a value in the range of 25 to 90) | > 10000 | * (The symbol “*” indicates a value in the range of 25 to 90) |
